Source: publication PMC8805583, “Discovery of Herbacetin as a Novel SGK1 Inhibitor to Alleviate Myocardial Hypertrophy” (Advanced Science, 2021)
Entries after “also recorded” stand apart in the source; their conditions may differ.

How the values were obtained:
control mice = assay: HBT in control mice (safety); type: in vivo
Experimental: Finally, we evaluate the safety and pharmacokinetics of HBT to ensure its druggability. […] Single dose administration of HBT at 40 mg kg^−1 was uptaken rapidly with a maximal plasma concentration of ≈6.73 ng mL^−1 after 10 min (Figure S14A, Supporting Information).
Figure S12. The mice were divided into two groups: Sham, Sham mice treated with HBT (Ctrl + HBT). (A) Schedule of animal treatments. (B) Heart weight/Body weight ratio (HW/BW) was detected in Ctrl and Ctrl + HBT group. (C-D) Echocardiography assessments were performed in the two groups. n=10-12. (E) HE in different groups of mice. n=4, Scale bar=50 μm. (F) The phosphorylation level of SGK1 in myocardial tissues in the two groups (Ctrl, Ctrl + HBT), n=4. Data were analyzed using unpaired two-tailed t test and data were expressed as means ± SD, ns: no significant.
(1 picture or pasted object on this page, not shown here)
Figure S13. Serum level of biochemical markers in mice of Ctrl and Ctrl + HBT groups. Data were analyzed using unpaired two-tailed t test and data were expressed as means ± SD, ns: no […]
Figure S14. Plasma concentration (A) and in vivo distribution (B) of HBT after single oral administration with dosage of 40mg/kg rat weight (n=5-6). The quantitation of HBT was performed by LC-MS/MS analysis. […]

[1] = system: primary rat cardiomyocytes; assay: Phenylephrine (PE)-induced hypertrophy in primary cardiomyocytes (phalloidin cell area, RT-PCR, western blot); type: cell-based
Experimental: The magnitude of cardiac hypertrophy was then evaluated by directly measuring the cell area after Alexa Fluor 488 phalloidin staining.
Primary cultures of cardiac myocytes were prepared from neonatal rat hearts using the Neonatal Heart Dissociation Kit (MACS, Germany) according to the manufacturer's protocol. Cardiomyocyte cultures were plated in gelatin‐coated plates in a plating medium containing 10% serum. After 24 h of plating, the medium was then replaced with a serum‐free maintenance medium and incubated for another 24 h before being used for further study.
For phenylephrine (PE)‐mediated cardiac hypertrophy, cardiomyocytes cultured in 6‐well plates were stimulated with PE (50 µmol) for 48 h in serum‐free medium with or without Ext.R or HBT (50 µmol) treatment. Cardiomyocytes were lysed in cell lysis buffer to isolate protein or total RNA for western blotting or PCR analysis.
Phenylephrine (PE) was obtained from Aladdin.
Phalloidin Staining and Immunofluorescence
To determine phenylephrine-induced hypertrophy, Alexa Fluor 488 Phalloidin (Cell Signaling) was used to fluorescently stain the cytoskeleton by the binding of phalloidin to F­actin. In brief, cells were fixed for 15 min using 4% paraformaldehyde then rinsed three times in PBS.
Following incubation of Alexa Fluor 488 Phalloidin and Hoechst for 15 min at room temperature, cells were rinsed once with PBS. Images were carried out using an ImageXpress Micro® Confocal High-Content Imaging System (Molecular Devices).

[2] = target: T1, SGK1 protein with the D177A mutation (Homo sapiens, UniProt O00141, D177A); assay: MS-based kinase inhibitory assay with FLAG-tagged mutated SGK1 immunoprecipitated from HEK293T; type: biochemical; conditions: normalized to WT SGK1
T1 construct: host or cells: HEK293T
T1 sequence (O00141 1-431 D177A): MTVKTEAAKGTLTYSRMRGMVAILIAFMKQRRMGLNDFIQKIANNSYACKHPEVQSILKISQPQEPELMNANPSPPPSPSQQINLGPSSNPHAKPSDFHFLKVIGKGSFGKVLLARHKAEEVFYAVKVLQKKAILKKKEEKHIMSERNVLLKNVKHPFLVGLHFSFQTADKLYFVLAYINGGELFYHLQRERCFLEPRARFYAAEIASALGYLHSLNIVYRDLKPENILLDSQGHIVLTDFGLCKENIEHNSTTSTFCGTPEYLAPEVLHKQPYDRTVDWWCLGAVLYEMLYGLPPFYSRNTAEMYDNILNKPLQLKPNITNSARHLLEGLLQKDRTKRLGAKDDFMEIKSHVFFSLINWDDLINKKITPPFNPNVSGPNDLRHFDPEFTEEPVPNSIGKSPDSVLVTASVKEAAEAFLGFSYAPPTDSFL
Text: To further elaborate the interaction between SGK1 and HBT, the SGK1‐HBT complex was constructed by molecular docking based on the SGK1 crystal structures retrieved from the Protein Data Bank (PDB). […] To explore the impacts of these three residues on the SGK1‐HBT binding, plasmids carrying respective SGK1 mutations (D177A, N227A, and T239A) were designed and transfected in the human embryonic kidney cells (HEK293T). The FLAG‐tagged wild‐type or mutated SGK1 protein lysates were collected by immunoprecipitation and examined for enzymatic activity in the presence of HBT using MS‐based kinase inhibitory assay.
The initial crystal structures of SGK1 (PDB entry: 3HDN, 3HDM, and 2R5T) were obtained from the Protein Data Bank (PDB). The prepared inhibitors were then docked by Glide with the extra precision (XP) scoring mode to estimate the binding affinity for each protein–ligand complex. The detailed process of docking has been described previously.^[ [46] ^] HEK293T cells were transfected with SGK1 mutant plasmids. After 24 h, cells were lysed and immunoprecipitated with anti‐FLAG antibody and beads. Immune complexes were washed with kinase buffer and incubated in kinase buffer with substrate peptide for 1 h at 30 ℃ followed by LC/MS measurement as described above. KINOMEscan Profiling Service and KinaseProfiler Service Assay were provided by Eurofins Discovery.

SGK1-FoxO1 interaction = target: T2, SGK1-FoxO1 interaction (Rattus norvegicus, UniProt Q06226); assay: Co-immunoprecipitation of SGK1 and FoxO1 in cardiomyocytes; type: cell-based; conditions: coimmunoprecipitation
T2 construct: endogenous in cells; host or cells: primary neonatal rat cardiomyocytes
T2 sequence (Q06226 1-430): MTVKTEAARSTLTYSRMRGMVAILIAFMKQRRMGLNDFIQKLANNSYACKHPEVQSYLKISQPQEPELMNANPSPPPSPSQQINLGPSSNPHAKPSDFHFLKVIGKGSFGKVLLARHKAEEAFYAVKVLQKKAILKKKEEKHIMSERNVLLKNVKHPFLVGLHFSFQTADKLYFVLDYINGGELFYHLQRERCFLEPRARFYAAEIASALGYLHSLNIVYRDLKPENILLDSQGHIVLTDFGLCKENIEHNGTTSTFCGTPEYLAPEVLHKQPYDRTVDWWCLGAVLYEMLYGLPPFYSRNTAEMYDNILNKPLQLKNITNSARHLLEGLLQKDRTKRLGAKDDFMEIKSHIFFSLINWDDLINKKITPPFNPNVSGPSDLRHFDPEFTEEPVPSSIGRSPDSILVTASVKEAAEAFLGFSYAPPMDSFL
Experimental: In the present study, we studied HBT's effect on protein binding between SGK1 and FoxO1 by coimmunoprecipitation (Figure 5E). […] Nevertheless, as previously reported,^[ [30] ^] […] Supportively, after transfection with the SGK1(S422D) plasmid, we consistently detected increased cytoplasmic signal of FoxO1 compared to nontransfected cells in which the majority of FoxO1 signal was distributed in the nucleus.
For the endogenous interaction assay, cardiomyocytes were treated with HBT or vehicle. After 24 h, cells were lysed with cell lysis buffer contained PMSF (Phenylmethylsulfonyl fluoride, a protease inhibitor). Protein extracts were harvested and immunoprecipitated with anti‐SGK1 or anti‐IgG antibody and protein A/G beads, and then measured by western blotting analysis.

SMILES: O=c1c(O)c(-c2ccc(O)cc2)oc2c(O)c(O)cc(O)c12 [HBT, herbacetin]
- heart weight, cardiac function, cardiac histopathology (control mice; control mice): no adverse effect
- serum level of regular biomarkers (ALT, AST, TCHO) (control mice; control versus HBT-treated mice): no significant difference
- PE-induced hypertrophy, cardiomyocyte cell area ([1]; 50 µmol PE 48 h, Ext.R 50 µg mL−1 or HBT 50 µmol): attenuate PE‐induced hypertrophy
- transcriptional level of ANP and BNP ([1]; 50 µmol PE, Ext.R or HBT): inhibited
- phosphorylation of SGK1 and FoxO1 ([1]; PE stimulation, western blot): significantly reduce
- protein expression of ACTA1, BNP and Myosin ([1]; PE stimulation, western blot): significantly reduced
- phosphorylation level of NF-κB p65 (Ser536) ([1]; PE-treated cardiomyocytes): did not affect
- phosphorylation of Nedd4l ([1]; induced by PE): reduce the phosphorylation
- inhibition of D177A-mutated SGK1 by HBT [2]: completely ablates; also recorded: almost completely lost its response
- direct binding between SGK1 and FoxO1 (SGK1-FoxO1 interaction): did not detect significant impact
